# pIC50: −log10 of the molar value.
# How the values were obtained:
# [1] = target: T1, hALK(C1156Y) (Homo sapiens, UniProt Q9UM73, C1156Y); assay: KINOMEscan; format: binding
# T1 construct: purchased DiscoverX
# [2] = target: T2, hBRAF (Homo sapiens, UniProt P15056); assay: KINOMEscan; format: binding
# T2 construct: purchased DiscoverX
# [3] = target: T3, hCAMK2G (Homo sapiens, UniProt Q13555); assay: KINOMEscan; format: binding
# T3 construct: purchased DiscoverX
# [4] = target: T4, hCAMKK1 (Homo sapiens, UniProt Q8N5S9); assay: KINOMEscan; format: binding
# T4 construct: purchased DiscoverX
# T4 sequence (Q8N5S9 whole entry): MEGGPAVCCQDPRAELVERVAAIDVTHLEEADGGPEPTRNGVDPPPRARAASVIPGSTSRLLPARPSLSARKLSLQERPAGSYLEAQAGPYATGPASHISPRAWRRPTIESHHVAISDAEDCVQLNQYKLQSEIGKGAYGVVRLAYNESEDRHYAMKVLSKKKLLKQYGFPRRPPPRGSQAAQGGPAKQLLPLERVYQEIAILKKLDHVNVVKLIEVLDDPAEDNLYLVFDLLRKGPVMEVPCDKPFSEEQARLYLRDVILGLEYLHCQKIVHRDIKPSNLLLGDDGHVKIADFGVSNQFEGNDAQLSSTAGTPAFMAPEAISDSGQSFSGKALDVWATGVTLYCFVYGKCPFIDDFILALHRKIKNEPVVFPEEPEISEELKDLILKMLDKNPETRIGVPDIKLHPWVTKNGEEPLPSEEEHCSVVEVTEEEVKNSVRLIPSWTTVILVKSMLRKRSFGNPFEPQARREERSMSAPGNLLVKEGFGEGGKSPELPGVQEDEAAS
# [5] = target: T5, hCSF1R (Homo sapiens, UniProt P07333); assay: KINOMEscan; format: binding
# T5 construct: purchased DiscoverX (KINOMEscan platform)
# [6] = target: T6, hDLK (Homo sapiens, UniProt Q12852); assay: KINOMEscan; format: binding
# T6 construct: purchased DiscoverX (KINOMEscan platform)
# [7] = target: T7, hEGFR(G719S) (Homo sapiens, UniProt P00533, G719S); assay: KINOMEscan; format: binding
# T7 construct: purchased DiscoverX
# [8] = target: T8, hEGFR(L858R,T790M) (Homo sapiens, UniProt P00533, L858R/T790M); assay: KINOMEscan; format: binding
# T8 construct: purchased DiscoverX
# [9] = target: T9, hEPHB1 (Homo sapiens, UniProt P54762); assay: KINOMEscan; format: binding
# T9 construct: purchased DiscoverX
# [10] = target: T10, hEPHB2 (Homo sapiens, UniProt P29323); assay: KINOMEscan; format: binding
# T10 construct: purchased DiscoverX
# [11] = target: T11, hEPHB3 (Homo sapiens, UniProt P54753); assay: KINOMEscan; format: binding
# T11 construct: purchased DiscoverX
# [12] = target: T12, hFGFR1 (Homo sapiens, UniProt P11362); assay: KINOMEscan; format: binding
# T12 construct: purchased DiscoverX
# [13] = target: T13, hGRK7 (Homo sapiens, UniProt Q8WTQ7); assay: KINOMEscan; format: binding
# T13 construct: purchased DiscoverX
# T13 sequence (Q8WTQ7 whole entry): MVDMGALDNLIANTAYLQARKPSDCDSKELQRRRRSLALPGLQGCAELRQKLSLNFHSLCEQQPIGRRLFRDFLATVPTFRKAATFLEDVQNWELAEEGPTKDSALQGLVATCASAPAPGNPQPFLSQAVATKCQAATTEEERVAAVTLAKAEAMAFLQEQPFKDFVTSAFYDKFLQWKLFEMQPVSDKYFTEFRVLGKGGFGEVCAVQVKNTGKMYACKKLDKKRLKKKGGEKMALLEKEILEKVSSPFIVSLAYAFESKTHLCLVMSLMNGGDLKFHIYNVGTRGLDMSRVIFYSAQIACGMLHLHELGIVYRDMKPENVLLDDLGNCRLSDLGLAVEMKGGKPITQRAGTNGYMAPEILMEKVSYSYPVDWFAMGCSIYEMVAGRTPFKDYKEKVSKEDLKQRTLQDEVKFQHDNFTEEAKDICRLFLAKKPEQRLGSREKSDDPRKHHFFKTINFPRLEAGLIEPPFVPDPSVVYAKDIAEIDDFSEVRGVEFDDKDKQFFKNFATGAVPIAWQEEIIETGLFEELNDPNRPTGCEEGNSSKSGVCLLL
# [14] = target: T14, hICK (Homo sapiens, UniProt Q9UPZ9); assay: KINOMEscan; format: binding
# T14 construct: purchased DiscoverX (KINOMEscan panel)
# [15] = target: T15, hJAK1(JH1Dom.-catalytic) (Homo sapiens, UniProt P23458); assay: KINOMEscan; format: binding
# T15 construct: hJAK1(JH1Dom.-catalytic); purchased DiscoverX (KINOMEscan panel)
# [16] = target: T16, hKIT(V559D,V654A) (Homo sapiens, UniProt P10721, V559D/V654A); assay: KINOMEscan; format: binding
# T16 construct: purchased DiscoverX (KINOMEscan platform)
# [17] = target: T17, hMAP3K2 (Homo sapiens, UniProt Q9Y2U5); assay: KINOMEscan; format: binding
# T17 construct: purchased DiscoverX (KINOMEscan platform)
# [18] = target: T18, hMEK2 (Homo sapiens, UniProt P36507); assay: KINOMEscan; format: binding
# T18 construct: purchased DiscoverX
# [19] = target: T19, hMLCK (Homo sapiens, UniProt Q32MK0); assay: KINOMEscan; format: binding
# T19 construct: purchased DiscoverX
# T19 sequence (Q32MK0 whole entry): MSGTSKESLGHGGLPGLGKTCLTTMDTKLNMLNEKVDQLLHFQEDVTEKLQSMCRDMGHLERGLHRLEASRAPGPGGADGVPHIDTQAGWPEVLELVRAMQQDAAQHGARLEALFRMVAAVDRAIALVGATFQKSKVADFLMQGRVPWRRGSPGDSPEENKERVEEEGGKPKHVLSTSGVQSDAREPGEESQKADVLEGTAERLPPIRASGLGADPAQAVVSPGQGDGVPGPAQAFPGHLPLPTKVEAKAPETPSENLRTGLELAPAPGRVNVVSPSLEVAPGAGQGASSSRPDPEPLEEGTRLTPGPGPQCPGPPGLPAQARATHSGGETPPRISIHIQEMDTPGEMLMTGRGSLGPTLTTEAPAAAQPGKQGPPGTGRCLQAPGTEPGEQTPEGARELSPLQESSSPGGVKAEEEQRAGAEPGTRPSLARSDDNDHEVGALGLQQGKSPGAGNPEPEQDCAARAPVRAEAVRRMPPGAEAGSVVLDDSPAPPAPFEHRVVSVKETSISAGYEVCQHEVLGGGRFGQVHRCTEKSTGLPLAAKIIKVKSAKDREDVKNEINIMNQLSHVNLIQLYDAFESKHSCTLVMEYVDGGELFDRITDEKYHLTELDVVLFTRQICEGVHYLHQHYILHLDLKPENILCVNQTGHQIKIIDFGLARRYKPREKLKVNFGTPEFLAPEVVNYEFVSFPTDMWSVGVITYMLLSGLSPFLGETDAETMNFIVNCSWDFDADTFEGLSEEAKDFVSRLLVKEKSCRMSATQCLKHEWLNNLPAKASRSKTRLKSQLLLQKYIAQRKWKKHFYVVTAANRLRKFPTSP
# [20] = target: T20, hRSK1(Kin.Dom.1-N-term) (Homo sapiens, UniProt Q15418); assay: KINOMEscan; format: binding
# T20 construct: hRSK1(Kin.Dom.1-N-term); purchased DiscoverX (KINOMEscan platform)
# T20 sequence (Q15418 62-321 limits assumed): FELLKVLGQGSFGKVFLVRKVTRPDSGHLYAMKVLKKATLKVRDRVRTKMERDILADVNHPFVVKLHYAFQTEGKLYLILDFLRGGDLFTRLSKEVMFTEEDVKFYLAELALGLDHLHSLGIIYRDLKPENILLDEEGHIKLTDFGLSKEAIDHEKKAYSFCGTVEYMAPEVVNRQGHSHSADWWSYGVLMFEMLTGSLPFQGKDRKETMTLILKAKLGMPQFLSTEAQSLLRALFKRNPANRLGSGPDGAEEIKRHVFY
# [21] = target: T21, hRSK3(Kin.Dom.1-N-term) (Homo sapiens, UniProt Q15349); assay: KINOMEscan; format: binding
# T21 construct: hRSK3(Kin.Dom.1-N-term); purchased DiscoverX (KINOMEscan platform)
# T21 sequence (Q15349 59-318 limits assumed): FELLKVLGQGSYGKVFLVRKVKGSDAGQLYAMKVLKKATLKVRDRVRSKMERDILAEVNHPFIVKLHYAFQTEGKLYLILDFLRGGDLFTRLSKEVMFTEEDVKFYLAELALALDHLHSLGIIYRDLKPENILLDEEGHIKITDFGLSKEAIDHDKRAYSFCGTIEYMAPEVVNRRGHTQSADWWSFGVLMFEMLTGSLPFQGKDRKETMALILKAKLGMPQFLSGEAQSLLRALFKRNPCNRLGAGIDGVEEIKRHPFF
# [22] = target: T22, hRSK4(Kin.Dom.2-C-term) (Homo sapiens, UniProt Q9UK32); assay: KINOMEscan; format: binding
# T22 construct: hRSK4(Kin.Dom.2-C-term); purchased DiscoverX (KINOMEscan platform)
# T22 sequence (Q9UK32 426-683 limits assumed): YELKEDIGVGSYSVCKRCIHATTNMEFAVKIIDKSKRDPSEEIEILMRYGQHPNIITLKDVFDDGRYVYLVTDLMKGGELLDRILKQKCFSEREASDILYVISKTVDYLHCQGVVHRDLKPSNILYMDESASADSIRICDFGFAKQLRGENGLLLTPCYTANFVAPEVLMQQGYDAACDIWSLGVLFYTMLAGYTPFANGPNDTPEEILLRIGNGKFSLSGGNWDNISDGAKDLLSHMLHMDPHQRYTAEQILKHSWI
# [23] = target: T23, hS6K1 (Homo sapiens, UniProt P23443); assay: KINOMEscan; format: binding
# T23 construct: purchased DiscoverX (KINOMEscan platform)
# [24] = target: T24, hSTK16 (Homo sapiens, UniProt O75716); assay: KINOMEscan; format: binding
# T24 construct: purchased DiscoverX (KINOMEscan platform)
# T24 sequence (O75716 whole entry): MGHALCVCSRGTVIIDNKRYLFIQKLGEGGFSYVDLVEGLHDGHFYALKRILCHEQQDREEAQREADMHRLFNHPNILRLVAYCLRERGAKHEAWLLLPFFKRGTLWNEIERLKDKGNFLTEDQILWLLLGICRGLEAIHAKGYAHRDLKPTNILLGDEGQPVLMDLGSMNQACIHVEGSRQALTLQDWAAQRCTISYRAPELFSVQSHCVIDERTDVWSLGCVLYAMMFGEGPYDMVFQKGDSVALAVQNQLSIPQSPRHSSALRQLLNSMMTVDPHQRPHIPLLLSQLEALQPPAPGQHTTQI
# [25] = target: T25, hTLK1 (Homo sapiens, UniProt Q9UKI8); assay: KINOMEscan; format: binding
# T25 construct: purchased DiscoverX
# [26] = target: T26, hULK1 (Homo sapiens, UniProt O75385); assay: KINOMEscan; format: binding
# T26 construct: purchased DiscoverX
# T26 sequence (O75385 whole entry): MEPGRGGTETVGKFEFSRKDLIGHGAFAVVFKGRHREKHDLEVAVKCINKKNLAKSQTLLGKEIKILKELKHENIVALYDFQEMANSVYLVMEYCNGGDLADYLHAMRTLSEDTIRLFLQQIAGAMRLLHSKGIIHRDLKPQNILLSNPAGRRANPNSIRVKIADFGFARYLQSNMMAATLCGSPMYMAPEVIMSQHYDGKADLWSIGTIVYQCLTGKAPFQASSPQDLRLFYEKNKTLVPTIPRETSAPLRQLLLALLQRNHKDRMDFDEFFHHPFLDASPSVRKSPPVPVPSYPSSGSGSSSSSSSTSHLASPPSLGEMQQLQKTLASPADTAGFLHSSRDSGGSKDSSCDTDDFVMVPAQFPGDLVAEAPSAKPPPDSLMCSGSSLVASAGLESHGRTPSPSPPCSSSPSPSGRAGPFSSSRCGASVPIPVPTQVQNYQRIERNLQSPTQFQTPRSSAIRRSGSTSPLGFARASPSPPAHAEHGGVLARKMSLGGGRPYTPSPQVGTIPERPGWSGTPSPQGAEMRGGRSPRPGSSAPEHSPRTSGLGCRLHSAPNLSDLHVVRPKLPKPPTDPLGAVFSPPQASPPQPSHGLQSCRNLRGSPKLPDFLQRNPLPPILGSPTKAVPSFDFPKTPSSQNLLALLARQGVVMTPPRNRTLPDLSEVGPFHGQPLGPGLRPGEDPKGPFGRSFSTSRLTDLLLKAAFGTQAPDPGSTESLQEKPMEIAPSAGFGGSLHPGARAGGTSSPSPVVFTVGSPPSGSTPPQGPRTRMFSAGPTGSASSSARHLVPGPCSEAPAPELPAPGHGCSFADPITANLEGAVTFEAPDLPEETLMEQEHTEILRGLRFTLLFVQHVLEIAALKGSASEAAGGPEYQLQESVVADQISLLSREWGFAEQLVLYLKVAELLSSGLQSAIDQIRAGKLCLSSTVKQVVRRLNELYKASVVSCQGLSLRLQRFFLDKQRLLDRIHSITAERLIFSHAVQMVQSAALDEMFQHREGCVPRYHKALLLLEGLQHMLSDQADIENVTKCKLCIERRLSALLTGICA
# [27] = target: T27, hULK3 (Homo sapiens, UniProt Q6PHR2); assay: KINOMEscan; format: binding
# T27 construct: purchased DiscoverX
# [28] = target: T28, hYANK2 (Homo sapiens, UniProt Q9NY57); assay: KINOMEscan; format: binding
# T28 construct: purchased DiscoverX
# [29] = target: T29, hYSK4 (Homo sapiens, UniProt Q56UN5); assay: KINOMEscan; format: binding
# T29 construct: purchased DiscoverX
# [30] = target: T30, hRARγ (Homo sapiens, UniProt P13631); assay: Nuclear hormone receptor assay (Eurofins-CEREP); settings: read-out: Relative IC50
# T30 construct: Eurofins-CEREP
# [31] = target: T31, CYP2D6 (Homo sapiens, UniProt P10635); assay: Cytochrome p450 inhibition (Eurofins-CEREP); format: in vitro ADME
# T31 construct: Eurofins-CEREP
# [32] = target: hD2L (Homo sapiens, UniProt P14416); assay: β-arrestin Antagonist (Eurofins-CEREP); settings: read-out: % Effect, Inhibition
# [33] = target: T32, hADRα1A (Homo sapiens, UniProt P35348); assay: Calcium Mobilization Potentiation (Eurofins-CEREP); settings: @ 10 μM
# T32 sequence (P35348 1-466): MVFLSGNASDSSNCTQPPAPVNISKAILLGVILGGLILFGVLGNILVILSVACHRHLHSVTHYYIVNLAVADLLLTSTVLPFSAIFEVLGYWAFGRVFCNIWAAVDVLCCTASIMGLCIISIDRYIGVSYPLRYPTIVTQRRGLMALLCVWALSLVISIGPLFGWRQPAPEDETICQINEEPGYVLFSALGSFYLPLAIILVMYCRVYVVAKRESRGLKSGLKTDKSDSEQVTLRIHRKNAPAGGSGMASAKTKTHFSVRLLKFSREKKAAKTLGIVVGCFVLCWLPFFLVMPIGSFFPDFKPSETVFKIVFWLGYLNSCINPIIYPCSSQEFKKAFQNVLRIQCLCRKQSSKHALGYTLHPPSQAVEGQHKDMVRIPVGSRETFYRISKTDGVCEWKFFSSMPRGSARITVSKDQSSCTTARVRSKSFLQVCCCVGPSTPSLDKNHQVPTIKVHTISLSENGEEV
# T2 sequence (P15056 whole entry): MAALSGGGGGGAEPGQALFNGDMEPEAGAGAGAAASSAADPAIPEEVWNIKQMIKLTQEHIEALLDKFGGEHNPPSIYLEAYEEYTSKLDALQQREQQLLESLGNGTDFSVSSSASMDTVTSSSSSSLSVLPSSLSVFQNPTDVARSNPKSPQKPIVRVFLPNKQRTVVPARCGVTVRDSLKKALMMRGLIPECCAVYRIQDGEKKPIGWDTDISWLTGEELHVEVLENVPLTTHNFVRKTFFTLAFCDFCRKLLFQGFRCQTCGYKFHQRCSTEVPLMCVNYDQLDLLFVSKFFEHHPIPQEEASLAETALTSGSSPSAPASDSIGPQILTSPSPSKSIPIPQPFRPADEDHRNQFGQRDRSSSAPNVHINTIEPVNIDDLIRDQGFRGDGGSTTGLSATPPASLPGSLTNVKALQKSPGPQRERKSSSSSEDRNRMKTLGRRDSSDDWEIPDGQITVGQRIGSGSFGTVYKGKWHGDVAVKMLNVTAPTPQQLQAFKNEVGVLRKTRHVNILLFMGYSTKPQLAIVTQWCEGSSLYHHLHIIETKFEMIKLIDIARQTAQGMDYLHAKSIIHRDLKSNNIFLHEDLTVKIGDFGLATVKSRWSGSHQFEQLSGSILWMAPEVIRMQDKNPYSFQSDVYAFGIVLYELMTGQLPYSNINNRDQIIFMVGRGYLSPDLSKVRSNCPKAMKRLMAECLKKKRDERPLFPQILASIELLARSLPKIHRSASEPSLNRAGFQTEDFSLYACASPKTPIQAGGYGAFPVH
structure (smiles),measurement,setting,value
"Cc1cn(CCN2CCN(c3ccccc3-c3cc(C#N)cc(C(=O)NCCCN4CCCC4)c3)CC2)c2ccccc12 [LLY-507, 3-cyano-5-{2-[4-[2-(3-methylindol-1-yl)ethyl]piperazin-1-yl]-phenyl}-N-[(3-pyrrolidin-1-yl)propyl]benzamide]",pIC50,[1],< 4.70
same,pIC50,[2],< 4.70
same,pIC50,[3],< 4.70
same,pIC50,[4],< 4.70
same,pIC50,[5],< 4.70
same,pIC50,[6],< 4.70
same,pIC50,[7],< 4.70
same,pIC50,[8],< 4.70
same,pIC50,[9],< 4.70
same,pIC50,[10],< 4.70
same,pIC50,[11],< 4.70
same,pIC50,[12],< 4.70
same,pIC50,[13],< 4.70
same,pIC50,[14],< 4.70
same,pIC50,[15],< 4.70
same,pIC50,[16],< 4.70
same,pIC50,[17],< 4.70
same,pIC50,[18],< 4.70
same,pIC50,[19],< 4.70
same,pIC50,[20],< 4.70
same,pIC50,[21],< 4.70
same,pIC50,[22],< 4.70
same,pIC50,[23],< 4.70
same,pIC50,[24],< 4.70
same,pIC50,[25],< 4.70
same,pIC50,[26],< 4.70
same,pIC50,[27],< 4.70
same,pIC50,[28],< 4.70
same,pIC50,[29],< 4.70
same,pIC50,[30],< 5.00
same,% inhibition @ 10 μM,[31],61.2%
same,inhibition at 10 µM,[32],29.8%
same,"% Effect, Potentiation",[33],-7.9%
